# Reference: ChEMBL document CHEMBL3886188, “Identification of human T2R receptors that respond to bitter compounds that elicit the bitter taste in compositions, and the use thereof in assays to identify compounds that inhibit (block) bitter taste in compositions and use thereof” (2016)
# Target: T1, Taste receptor type 2 member 8 (Homo sapiens, UniProt Q9NYW2)
# T1 sequence (Q9NYW2 whole entry): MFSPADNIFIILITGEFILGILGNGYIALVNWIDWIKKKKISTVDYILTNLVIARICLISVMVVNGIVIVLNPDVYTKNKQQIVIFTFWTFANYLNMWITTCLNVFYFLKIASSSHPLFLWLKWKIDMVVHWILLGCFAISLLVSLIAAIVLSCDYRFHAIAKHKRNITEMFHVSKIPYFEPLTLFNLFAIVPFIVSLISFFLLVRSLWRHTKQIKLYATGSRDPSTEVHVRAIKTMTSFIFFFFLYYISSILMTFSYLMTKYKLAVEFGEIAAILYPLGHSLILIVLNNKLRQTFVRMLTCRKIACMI
# Experiment: Fluorescence Polarization Assays: In another embodiment, Fluorescence Polarization ("FP") based assays may be used to detect and monitor ligand binding. Fluorescence polarization is a versatile laboratory technique for measuring equilibrium binding, nucleic acid hybridization, and enzymatic activity. […] Generally, this technique can be used to measure polarization values of fluorophores from low picomolar to micromolar levels.
structure (smiles),measurement,value
Cc1noc(C)c1Cn1cc(N2CCCN(Cc3ccccc3)C2=O)cn1,IC50,1650 nM
